Source: publication PMC6332029, “Mimosine Dipeptide Enantiomsers: Improved Inhibitors against Melanogenesis and Cyclooxygenase” (Molecules, 2015)
Several values for one entry are separate records, joined by “and”; a condition that tells them apart may be missing. Equal values may be shown once. Read-outs that look alike come from different tables or passages of the source. One block for each compound: values may come before it.

What was measured:
mushroom tyrosinase [1] = experiment: Mushroom tyrosinase inhibition microplate assay (L-tyrosine substrate); type: biochemical; conditions: L-tyrosine as substrate; mean ± SE
Experimental: (§1) A microplate assay was used to assess tyrosinase inhibition, as previously described. Samples (20 μL) with various concentrations were transferred into each well of 96-well plate, and 120 μL of 20 mM sodium phosphate buffer (pH 6.8), 20 μL of 500 U/mL mushroom tyrosinase enzyme dissolved in buffer were added. […] The absorbance was recorded at 470 nm using a microplate reader (Benchmark plus, Biorad, Herfordshire, UK). […] For the kinetic studies of selected inhibitors, we used a range of L-tyrosine concentrations for each inhibitor concentration. Preincubation and measurement times were the same as above. Lineweaver-Burk plots were used to determine the type of enzyme inhibition, and the inhibition constant Ki was determined by plotting Km/Vmax versus the inhibitor concentration. Percent inhibition was calculated using the following equation: Inhibition (%) = ([CE − Co] − [SE − So])/(CE − Co) × 100 (1) where CE is the absorbance of the control samples with enzyme, Co is the absorbance of the control samples without enzyme, SE is the absorbance of the tested sample with enzyme, and So is the absorbance of the tested sample without enzyme.

mushroom tyrosinase [2] = experiment: Kinetic analysis of tyrosinase inhibition (Lineweaver-Burk plots); type: biochemical; conditions: substrate L-tyrosine; for Inhibition Type: Lineweaver-Burk plots, inhibitor 0, 5, 15 μM; for Ki: plot of Km/Vmax versus inhibitor concentration, read-out: Inhibition Constant (Ki)
Experimental: Tyrosinase activity was assayed as described in the text.
as §1

B16F10 melanoma cells = experiment: Determination of melanin content in B16F10 cells; type: cell-based, Mouse; conditions: read-out: IC50 for Melanin Content Inhibition
Experimental: (§2) Mouse B16F10 cell line was obtained from American Type Culture Collection (Manassas, VA, USA). Cells were cultured in Dulbecco’s modified minimum essential medium (D-MEM) medium containing 10% fetal bovine serum (FBS), 1% penicillin/streptomycin in a humidified atmosphere with 5% CO2 incubator at 37 °C.
The assay was performed following previously described procedure. Cells (5 × 10^3 cells/well) were seeded in a 96-well plate and cultured for 24 h. Compounds (10–500 μM) were added and incubated at 37 °C for 48 h. The medium was replaced by a fresh medium containing the same concentration of compound and the cells were incubated for 48 h. The medium was removed and the cells were dissolved in 100 μL of 1 N NaOH. The reaction was heated at 90 °C for 1 h. Melanin content was estimated by the absorbance at 400 nm.

[3] = tested on: intracellular tyrosinase in B16F10 melanoma cells; experiment: Intracellular tyrosinase inhibition assay; type: cell-based, Mouse; conditions: L-DOPA substrate, mean ± SE, read-out: IC50 for Cellular Tyrosinase Inhibition
Experimental: as §2
Cells were seeded in a 96-well plate at a density 5 × 10^3 cells/well and the compounds (10–500 μM) were added after 24 h treatment. Cells were incubated for 48 h, washed two times with 50 mM of ice-cold phosphate buffer (pH 6.8), lysed with 90 μL of 50 mM phosphate buffer (pH 6.8) containing 1% Triton-X, and frozen at −80 °C for 30 min. After thawing and mixing, 20 μL of 0.5% L-DOPA was added to each well. The mixture was incubated for 2 h at 37 °C and absorbance was measured at 490 nm.

COX-1 = biological target: T1, COX-1 (Ovis aries, UniProt P05979); experiment: Colorimetric COX (ovine) inhibitor screening assay, COX-1; type: biochemical; conditions: ovine COX-1, colorimetric kit; mean ± SE
T1 construct: purchased Cayman Chemical, Ann Arbor, Michigan, USA
T1 sequence (P05979 25-600): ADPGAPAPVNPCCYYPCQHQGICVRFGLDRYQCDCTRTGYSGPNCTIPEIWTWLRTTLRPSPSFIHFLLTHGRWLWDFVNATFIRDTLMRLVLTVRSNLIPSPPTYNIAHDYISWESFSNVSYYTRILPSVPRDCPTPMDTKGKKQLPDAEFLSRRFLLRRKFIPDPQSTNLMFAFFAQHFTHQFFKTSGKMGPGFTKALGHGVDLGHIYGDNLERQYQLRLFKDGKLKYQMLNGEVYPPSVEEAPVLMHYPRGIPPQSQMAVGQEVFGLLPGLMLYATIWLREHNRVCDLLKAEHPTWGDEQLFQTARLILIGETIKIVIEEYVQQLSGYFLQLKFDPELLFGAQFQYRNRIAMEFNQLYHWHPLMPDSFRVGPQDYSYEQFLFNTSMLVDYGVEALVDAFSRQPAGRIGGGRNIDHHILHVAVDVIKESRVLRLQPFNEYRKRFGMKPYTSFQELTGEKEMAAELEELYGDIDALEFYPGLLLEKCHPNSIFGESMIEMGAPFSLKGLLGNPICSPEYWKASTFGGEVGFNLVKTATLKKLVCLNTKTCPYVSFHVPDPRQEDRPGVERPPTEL
Experimental: (§3) Inhibition of COX activity was measured using a colorimetric COX (ovine) inhibitor screening assay kit (Cayman Chemical, Ann Arbor, Michigan, USA). First, 150 μL of assay buffer (0.1 M Tris-HCl, pH 8.0), 10 μL of heme, and 10 μL of enzyme (COX-1 or COX-2) were added to an […] 96-well microtiter plate. Immediately, 10 μL of sample was added to inhibitor wells while 10 μL of solvent or buffer was added to control and background wells, respectively. […] The mixture was shaken for a few seconds and incubated for an additional 5 min at 25 °C. The absorbance was determined at 590 nm using a microplate reader (Benchmark plus, Biorad, Herfordshire, UK). […] The corrected absorbance of all the samples and controls was calculated by subtracting the absorbance of the background wells. The percentage of inhibition was calculated as follows: Inhibition (%) = (Ao − As)/Ao × 100 (2) where Ao and As are the absorbance of the corrected control and sample, respectively.

COX-2 [4] = biological target: T2, COX-2 (Ovis aries, UniProt P79208); experiment: Colorimetric COX (ovine) inhibitor screening assay, COX-2; type: biochemical; conditions: ovine COX-2, colorimetric kit; mean ± SE
T2 sequence (P79208 17-603): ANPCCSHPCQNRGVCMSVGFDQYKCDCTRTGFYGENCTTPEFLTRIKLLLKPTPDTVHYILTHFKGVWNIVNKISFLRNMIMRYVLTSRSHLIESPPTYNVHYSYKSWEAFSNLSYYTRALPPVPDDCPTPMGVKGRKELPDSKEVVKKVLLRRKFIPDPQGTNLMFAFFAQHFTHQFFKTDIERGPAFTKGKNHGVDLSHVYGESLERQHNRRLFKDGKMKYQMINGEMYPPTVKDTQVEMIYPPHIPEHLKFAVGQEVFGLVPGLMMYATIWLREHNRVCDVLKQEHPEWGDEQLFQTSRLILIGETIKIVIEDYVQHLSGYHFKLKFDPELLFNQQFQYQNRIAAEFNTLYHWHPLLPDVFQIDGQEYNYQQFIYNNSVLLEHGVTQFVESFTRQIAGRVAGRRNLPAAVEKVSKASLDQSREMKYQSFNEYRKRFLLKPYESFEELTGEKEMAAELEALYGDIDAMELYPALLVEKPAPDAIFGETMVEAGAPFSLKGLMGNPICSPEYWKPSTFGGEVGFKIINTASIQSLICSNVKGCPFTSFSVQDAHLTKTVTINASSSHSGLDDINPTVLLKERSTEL
Experimental: as §3

COX-2 [5] = experiment: as above; type: biochemical; conditions: ratio of COX-1 IC50 to COX-2 IC50
Experimental: as §3

mushroom tyrosinase [6] = tested on: mushroom tyrosinase; parameters: method as in doi:10.1016/S0031-9422(00)82317-1; conditions: cited from earlier work
[7] = Mus musculus, B16-F10, mean ± SE

- IC50 (mushroom tyrosinase [1]): 10 µM and 10.3 µM
- Inhibition Type (mushroom tyrosinase [2]): competitive
- Ki (mushroom tyrosinase [2]): 20 µM
- IC50 (B16F10 melanoma cells; [7]): 112 ± 8.1 µM
- IC50 ([3]; Mus musculus, B16-F10, 48 h): 162 ± 4.1 µM
Compound: CC(C)[C@@H](NC(=O)[C@@H](N)Cn1ccc(=O)c(O)c1)C(=O)O [Mi-D-Val]

Compound: C[C@@H](NC(=O)[C@@H](N)Cn1ccc(=O)c(O)c1)C(=O)O [Mi-D-Ala]
- IC50 (mushroom tyrosinase [1]): 17.7 ± 3.1 µM
- IC50 (B16F10 melanoma cells; [7]): 199 ± 5.2 µM
- IC50 ([3]; Mus musculus, B16-F10, 48 h): 181 ± 6.8 µM
- IC50 (COX-1): 19.1 ± 1 µM
- IC50 (COX-2 [4]): 198 ± 3.7 µM
- SI COX-1/COX-2 (selectivity index, COX-1 IC50/COX-2 IC50) (COX-2 [5]): 0.10

Compound: C[C@H](NC(=O)[C@@H](N)Cn1ccc(=O)c(O)c1)C(=O)O [Mi-L-Ala]
- IC50 (mushroom tyrosinase [1]): 23.1 ± 2.2 µM
- IC50 (B16F10 melanoma cells; [7]): 128 ± 7.4 µM
- IC50 ([3]; Mus musculus, B16-F10, 48 h): 172 ± 4.6 µM

Compound: N[C@@H](Cn1ccc(=O)c(O)c1)C(=O)N[C@@H](Cc1c[nH]c2ccccc12)C(=O)O [Mi-L-Trp]
- IC50 (mushroom tyrosinase [1]): 19.2 ± 1.5 µM
- IC50 (B16F10 melanoma cells; [7]): 109 ± 2.7 µM
- IC50 ([3]; Mus musculus, B16-F10, 48 h): 156 ± 8.3 µM
- IC50 (COX-1): 20.4 ± 1.6 µM
- IC50 (COX-2 [4]): 19 µM and 19.3 µM

Compound: N[C@@H](Cn1ccc(=O)c(O)c1)C(=O)O [Mimosine, β-[N-(3-hydroxy-4-oxypyridyl)]-α-aminopropionic acid]
- IC50 (mushroom tyrosinase [1]): 32.4 ± 1.1 µM
- IC50 (B16F10 melanoma cells; [7]): ~226 µM
- IC50 (B16F10 melanoma cells; mean ± SE): 226 ± 4 µM
- IC50 ([3]; 48 h): 388 ± 7.2 µM
- IC50 ([3]; Mus musculus, B16-F10, 48 h): ~388 µM
- IC50 (COX-1): 29 µM and 28.8 µM
- IC50 (COX-2 [4]): 21 µM and 20.9 µM
- SI COX-1/COX-2 (selectivity index, COX-1 IC50/COX-2 IC50) (COX-2 [5]): 1.38
- Inhibition type of tyrosinase (mushroom tyrosinase [6]): competitive

- IC50 (mushroom tyrosinase [1]): 24.1 ± 3.8 µM
- IC50 (B16F10 melanoma cells; [7]): 121 ± 8.6 µM
- IC50 ([3]; Mus musculus, B16-F10, 48 h): 179.2 ± 1.3 µM
Compound: N[C@@H](Cn1ccc(=O)c(O)c1)C(=O)N[C@@H](Cc1ccccc1)C(=O)O [Mi-L-Phe]

- IC50 (mushroom tyrosinase [1]): 19.7 ± 0.8 µM
- IC50 (B16F10 melanoma cells; [7]): 168.4 ± 1.4 µM
- IC50 ([3]; Mus musculus, B16-F10, 48 h): 194 ± 6.2 µM
Compound: N[C@@H](Cn1ccc(=O)c(O)c1)C(=O)N[C@H](Cc1ccccc1)C(=O)O [Mi-D-Phe]

Compound: N[C@@H](Cn1ccc(=O)c(O)c1)C(=O)N1CCC[C@H]1C(=O)O [Mi-L-Pro]
- IC50 (mushroom tyrosinase [1]): 13 µM and 13.1 µM
- Inhibition Type (mushroom tyrosinase [2]): competitive
- Ki (mushroom tyrosinase [2]): 50 µM
- IC50 (B16F10 melanoma cells; [7]): 110 ± 5.3 µM
- IC50 ([3]; Mus musculus, B16-F10, 48 h): 167 ± 7.3 µM
- IC50 (COX-1): 17.9 ± 2.1 µM
- IC50 (COX-2 [4]): 29.3 ± 3 µM

Compound: N[C@@H](Cn1ccc(=O)c(O)c1)C(=O)N1CCC[C@@H]1C(=O)O [Mi-D-Pro]
- IC50 (mushroom tyrosinase [1]): 17.2 ± 2.1 µM
- IC50 (B16F10 melanoma cells; [7]): 123 ± 3 µM
- IC50 ([3]; Mus musculus, B16-F10, 48 h): 146 ± 5.2 µM
- IC50 (COX-1): 21 ± 2 µM
- IC50 (COX-2 [4]): 128 ± 7.7 µM
- SI COX-1/COX-2 (selectivity index, COX-1 IC50/COX-2 IC50) (COX-2 [5]): 0.15

Compound: N[C@@H](Cn1ccc(=O)c(O)c1)C(=O)N[C@H](Cc1c[nH]c2ccccc12)C(=O)O [Mi-D-Trp]
- IC50 (mushroom tyrosinase [1]): 17 µM and 16.9 µM
- Inhibition Type (mushroom tyrosinase [2]): competitive
- Ki (mushroom tyrosinase [2]): 80 µM
- IC50 (B16F10 melanoma cells; [7]): 116 ± 4.9 µM
- IC50 ([3]; Mus musculus, B16-F10, 48 h): 150 ± 2.3 µM
- IC50 (COX-1): 26.1 ± 1.3 µM
- IC50 (COX-2 [4]): 27.5 ± 2.2 µM
- SI COX-1/COX-2 (selectivity index, COX-1 IC50/COX-2 IC50) (COX-2 [5]): 0.95

Compound: CC(C)[C@H](NC(=O)[C@@H](N)Cn1ccc(=O)c(O)c1)C(=O)O [Mi-L-Val]
- IC50 (mushroom tyrosinase [1]): 12 µM and 11.5 µM
- Inhibition Type (mushroom tyrosinase [2]): competitive
- Ki (mushroom tyrosinase [2]): 30 µM
- IC50 (B16F10 melanoma cells; [7]): 170 ± 7.5 µM
- IC50 ([3]; Mus musculus, B16-F10, 48 h): 172 ± 6.5 µM
- IC50 (COX-1): 24.4 ± 1.4 µM
- IC50 (COX-2 [4]): 22 µM and 21.7 µM
- SI COX-1/COX-2 (selectivity index, COX-1 IC50/COX-2 IC50) (COX-2 [5]): 1.12
